Reference: PMC4865847, “Putative histidine kinase inhibitors with antibacterial effect against multi-drug resistant clinical isolates identified by in vitro and in silico screens” (Scientific Reports, 2016)
≈ marks a conversion by molar mass, not a printed value. Where two headings read alike, the source gives them in different places.

Columns and labels:
HK NblS (CA domain) = test: Differential scanning fluorimetry (DSF), NblS; type: binding, Synechococcus sp. PCC 7942
Experimental: (§1) To monitor protein unfolding, the fluorescent dye Sypro orange was used[26]. Differential scanning fluorimetry (DSF) experiments were conducted in the iCycleriQ Real Time Detection System (Bio-Rad, Hercules, CA). Solutions of 20 μl of 0.1 mg/ml protein (final concentration), 200 μM fragment cocktails or individual fragments (final concentration), 10X sypro orange (final concentration) and buffer (100 mM TrisCl pH 8, 150 mM NaCl) were added to the wells of the 96-well iCycler iQ PCR plate. The plate was heated from 20 to 85 or 99 °C at a heating rate of 1 °C/min. The fluorescent intensity was measured with Ex/Em: 490/530 nm. Prism GraphPad v.5 was used for curve fitting and statistical analysis.

[1] = molecular target: T1, HK WalK (DHp and CA domain) (Streptococcus pneumoniae, UniProt Q8DPL8); test: Differential scanning fluorimetry (DSF), WalK; type: binding
T1 construct: WalK (amino acids from 208 to 449); N-terminal His6-3C site of vector pOPINF (own knowledge of the vector); made in house; host or cells: E. coli RIL
Experimental: as §1

E. coli PhoR (PhoR^E) [2] = molecular target: T2, E. coli PhoR (PhoR^E) (Escherichia coli, UniProt P08400); test: In vitro autophosphorylation kinase assay with γ-32P-ATP, PhoR^E; type: biochemical; settings: for IC50: autophosphorylation, one time point (30 sec), 10% DMSO, read-out: IC50 PhoR^E
T2 construct: The catalytic portion (DHp and CA domain) of E. coli PhoR (PhoR^E); made in house; host or cells: E. coli RIL
How it was run: (§2)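 Histidine kinase (0.12 mg/ml, ≈4 μM) incubated with up to 20 mM fragment in 50 mM Tris HCl pH 8.5, 50 mM KCl, 5 mM MgCl2, 0.5 mM EDTA, 0.1 mM DTT; started with 0.1 μCi/μl γ-32P-ATP (0.03–0.06 μM ATP final). Phosphoprotein quantified by SDS-PAGE and phosphor-imaging, curve-fitted; DMSO controls.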

S. pneumoniae WalK = molecular target: T3, S. pneumoniae WalK (Streptococcus pneumoniae, UniProt Q8DPL8); test: In vitro autophosphorylation kinase assay with γ-32P-ATP, WalK; type: biochemical; settings: for IC50: autophosphorylation, one time point (30 sec), 10% DMSO, read-out: IC50 WalK
T3 construct: WalK (amino acids from 208 to 449); N-terminal His6-3C site of vector pOPINF (own knowledge of the vector); made in house; host or cells: E. coli RIL
How it was run: as §2

Staphylococcus aureus = test: Antibacterial susceptibility testing (MIC/MBC), S. aureus; type: cell-based; settings: Staphylococcus aureus; for MBC: read-out: MBC S. aureus DSM 20231
Experimental: (§3) Minimal inhibitory concentrations (MICs) were determined following a standard double-dilution method. […] For S. pneumoniae MICs were determined by adapting the standard double-dilution method to anaerobic conditions and of this microorganism (use of Todd Hewitt Yeast extract with 200 U/mL of catalase and continuous monitoring of growth).

[3] = tested on: Staphylococcus epidermidis; test: Antibacterial susceptibility testing (MIC/MBC), S. epidermidis; type: cell-based; settings: Staphylococcus epidermidis
Experimental: as §3

Escherichia coli = test: Antibacterial susceptibility testing (MIC/MBC), E. coli; type: cell-based
Experimental: as §3

E. coli PhoR (PhoR^E) [4] = molecular target: T2, E. coli PhoR (PhoR^E); test: Aggregation analysis by native-PAGE, PhoR^E; settings: 2 mM (S5 and S6 5 mM), 10% DMSO
Experimental: (§4) E. coli PhoR and EnvZ, and S. aureus PhoR ([…], final concentration) were prepared in kinase buffer. […] DMSO in the assays was maintained to a final concentration 10% (v/v). After 30 min of incubation at room temperature Native polyacrylamide gel electrophoresis (Native-PAGE) loading buffer was added and samples loaded. Coomassie blue staining was used for protein visualization.

E. coli EnvZ = molecular target: T4, E. coli EnvZ (Escherichia coli, UniProt P0AEJ4); test: Aggregation analysis by native-PAGE, EnvZ; settings: 2 mM, 10% DMSO
T4 construct: The catalytic portion (DHp and CA domain) of E. coli PhoR (PhoR^E), E. coli EnvZ; made in house; host or cells: E. coli RIL
Experimental: as §4

S. aureus PhoR (PhoR^S) = S. aureus PhoR (PhoR^S) (Staphylococcus aureus, UniProt Q2FXN7); test: Aggregation analysis by native-PAGE, PhoR^S; settings: 2 mM (S5 and S6 5 mM), 10% DMSO
Experimental: as §4

Streptococcus suis = test: Antibacterial susceptibility testing (MIC), S. suis; type: cell-based; settings: Streptococcus suis, read-out: MIC Streptococcus suis 3881/S10, strain 3881/S10
Experimental: (§5) Bacterial strains used in this study for antibacterial susceptibility testing (Table S5) were propagated using standard microbiological procedures. Minimal inhibitory concentrations (MICs) were determined following a standard double-dilution method. MICs were recorded as the lowest concentration of the compound where no visible growth was observed. After plating the dilutions around the MIC or growing them in fresh MH media, minimal bactericidal concentration (MBC) was recorded as the lowest concentration of the compound at which no colonies were formed or no growth was observed, respectively. For S. pneumoniae MICs were determined by adapting the standard double-dilution method to anaerobic conditions and of this microorganism (use of Todd Hewitt Yeast extract with 200 U/mL of catalase and continuous monitoring of growth).

Streptococcus pneumoniae = test: Antibacterial susceptibility testing (MIC), S. pneumoniae; type: cell-based; settings: strain 49619
Experimental: as §5

Acinetobacter baumannii = test: Antibacterial susceptibility testing (MIC), A. baumannii; type: cell-based
Experimental: as §5

[5] = tested on: Stenotrophomonas maltophilia; test: Antibacterial susceptibility testing (MIC), S. maltophilia; type: cell-based; settings: clinical isolate B32/1, read-out: MIC S. maltophilia B32/1
Experimental: as §5

Klebsiella pneumoniae = test: Antibacterial susceptibility testing (MIC), K. pneumoniae; type: cell-based
Experimental: as §5

Pseudomonas aeruginosa = test: Antibacterial susceptibility testing (MIC), P. aeruginosa; type: cell-based; settings: Pseudomonas aeruginosa, ATCC27853; strain ATCC 27853
Experimental: as §5

Hemolysis assay = type: cell-based; settings: human
Experimental: Hemolytic activity against human erythrocytes taken from a healthy donor was measured as previously described. The hemolysis experiments were carried out in accordance with the guidelines of the United Arab Emirates University (UAEU) Research Ethics Review Board. All experimental protocols were approved by the Research Ethics Review Board of UAEU and informed consent was obtained from all donors.

[6] = Solubility in kinase buffer; type: physicochemical; settings: kinase buffer with 10% DMSO, pH 8.5, aqueous with cosolvent or surfactant or cyclodextrin, kinetic from dmso stock; kinase buffer in the presence of 10% DMSO; read-out: concentration above which not soluble / reduced solubility in kinase buffer
S. epidermidis YycG = tested on: S. epidermidis YycG; parameters: method as in PMID 24737057; settings: read-out: IC50 S. epidermidis YycG (WalK) autophosphorylation; cited from earlier work
Gram positive strains = settings: cited from earlier work
[7] = Escherichia coli, strain CFT 073, read-out: MIC E. coli CFT 073

T3 sequence (Q8DPL8 208-449): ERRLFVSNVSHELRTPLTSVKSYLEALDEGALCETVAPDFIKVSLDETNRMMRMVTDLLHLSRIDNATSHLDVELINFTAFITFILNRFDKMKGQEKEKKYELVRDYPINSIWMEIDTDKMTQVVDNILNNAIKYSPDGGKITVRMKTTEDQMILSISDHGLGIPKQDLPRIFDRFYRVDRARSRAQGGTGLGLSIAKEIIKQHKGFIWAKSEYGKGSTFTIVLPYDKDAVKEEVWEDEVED
T2 sequence (P08400 210-425): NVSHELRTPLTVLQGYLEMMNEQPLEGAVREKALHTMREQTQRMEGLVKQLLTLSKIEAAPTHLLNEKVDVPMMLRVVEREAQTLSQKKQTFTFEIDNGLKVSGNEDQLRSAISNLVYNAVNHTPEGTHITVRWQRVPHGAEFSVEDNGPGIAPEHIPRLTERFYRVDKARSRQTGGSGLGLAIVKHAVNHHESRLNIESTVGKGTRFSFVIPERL
T1 sequence (Q8DPL8 208-449): as the sequence (Q8DPL8 208-449) above
Sequence of S. aureus PhoR (PhoR^S) (Q2FXN7 entry or part of it): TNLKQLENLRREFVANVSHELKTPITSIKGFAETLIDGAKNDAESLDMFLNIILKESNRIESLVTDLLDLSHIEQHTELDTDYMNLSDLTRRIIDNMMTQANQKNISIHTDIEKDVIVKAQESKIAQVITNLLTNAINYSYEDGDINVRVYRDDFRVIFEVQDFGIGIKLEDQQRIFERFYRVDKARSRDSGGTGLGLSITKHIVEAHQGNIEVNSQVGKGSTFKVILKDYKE
T4 sequence (P0AEJ4 240-440): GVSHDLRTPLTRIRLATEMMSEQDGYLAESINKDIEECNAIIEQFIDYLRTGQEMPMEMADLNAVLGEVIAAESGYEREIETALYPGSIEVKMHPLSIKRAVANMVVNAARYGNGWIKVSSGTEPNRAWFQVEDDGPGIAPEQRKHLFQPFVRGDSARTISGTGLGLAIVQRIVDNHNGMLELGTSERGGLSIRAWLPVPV

Oc1ccc2c(c1)[nH]c1ccccc12 [F2, 2-hydroxy-carbazole]
increase of NblS Tm (HK NblS (CA domain)): 2.2 °C
increase of WalK Tm [1]: 3.9 °C
IC50 (E. coli PhoR (PhoR^E) [2]): 300 µM
IC50 (S. pneumoniae WalK): > 2000 µM
inhibitory capacity for WalK autophosphorylation activity (S. pneumoniae WalK; single concentration 5 mM, 30 sec): weak inhibitory capacity
MBC (Staphylococcus aureus; DSM20231, strain DSM 20231): > 500 µg/mL
MIC (Staphylococcus aureus; DSM20231, strain DSM 20231, read-out: MIC S. aureus DSM 20231): 31 µg/mL (≈ 169 µM)
MIC ([3]; DSM20044, strain DSM 20044, read-out: MIC S. epidermidis DSM 20044): > 500 µg/mL
MIC (Escherichia coli; [7]): > 500 µg/mL
HK aggregation, PhoR^E (E. coli PhoR (PhoR^E) [4]): do not cause HK aggregation
HK aggregation, EnvZ (E. coli EnvZ): do not cause HK aggregation
HK aggregation, PhoR^S (S. aureus PhoR (PhoR^S)): do not cause HK aggregation

Nc1nccc(Nc2ccc(Br)cc2)n1 [F1.8]
inhibition at 2000 µM (E. coli PhoR (PhoR^E) [2]; 2 mM, 30 sec, compared to negative control): > 50%
IC50 (E. coli PhoR (PhoR^E) [2]): ≤ 1000 µM
IC50 (S. pneumoniae WalK): > 2000 µM
MIC (Staphylococcus aureus; ATCC reference strain 25293, read-out: MIC S. aureus 25293): 250 µg/mL (≈ 943 µM)
MBC (Staphylococcus aureus; DSM20231, strain DSM 20231): 250 µg/mL (≈ 943 µM)
MIC (Staphylococcus aureus; MRSA clinical isolate 127/08, read-out: MIC S. aureus 127/08): 250 µg/mL (≈ 943 µM)
MIC (Staphylococcus aureus; MRSA clinical isolate 145/08, read-out: MIC S. aureus 145/08): 250 µg/mL (≈ 943 µM)
MIC (Staphylococcus aureus; MRSA clinical isolate 274/08, read-out: MIC S. aureus 274/08): 250 µg/mL (≈ 943 µM)
MIC (Staphylococcus aureus; MRSA, MRSA clinical isolate S908, read-out: MIC S. aureus S908): 250 µg/mL (≈ 943 µM)
MIC (Staphylococcus aureus; MRSA, MRSA clinical isolate T4/6, read-out: MIC S. aureus T4/6): 250 µg/mL (≈ 943 µM)
MIC (Staphylococcus aureus; MRSA, MRSA clinical isolate V4180, read-out: MIC S. aureus V4180): 250 µg/mL (≈ 943 µM)
MIC (Staphylococcus aureus; MRSA, summary over strains, read-out: MICs for the S. aureus reference strains and the MRSA strains): 125 to 250 µg/mL (≈ 471 to 943 µM)
MBC ([3]; DSM20044, strain DSM 20044): 125 µg/mL (≈ 471 µM)
MIC ([3]; clinical isolate T7/3, read-out: MIC S. epidermidis T7/3): 31 µg/mL (≈ 117 µM)
MIC ([3]; clinical isolate T37/8, read-out: MIC S. epidermidis T37/8): 500 µg/mL (≈ 1890 µM)
MIC ([3]; clinical isolate T6119, read-out: MIC S. epidermidis T6119): 250 µg/mL (≈ 943 µM)
MIC ([3]; strain RP62A (biofilm producer), read-out: MIC S. epidermidis RP62A): 500 µg/mL (≈ 1890 µM)
MIC ([3]; strain RP62A/1 (non-biofilm producer), read-out: MIC S. epidermidis RP62A/1): 250 µg/mL (≈ 943 µM)
MIC ([3]; summary over strains, read-out: MICs for the S. epidermidis strains): 31 to 500 µg/mL (≈ 117 to 1890 µM)
MIC (Escherichia coli; Escherichia coli, ATCC25276, strain ATCC 25276, read-out: MIC E. coli ATCC 25276): 125 to 250 µg/mL (≈ 471 to 943 µM)
MBC (Escherichia coli; Escherichia coli, strain CFT 073, read-out: MBC E. coli CFT 073): 500 µg/mL (≈ 1890 µM)
MIC (Escherichia coli; [7]): < 250 µg/mL
MIC (Escherichia coli; Escherichia coli, summary over E. coli strains, read-out: antibacterial effects (MIC) against E. coli): ≥ 250 µg/mL
MIC E. coli ATCC 25276 (Escherichia coli; strain ATCC 25276): 250 µg/mL (≈ 943 µM)
MIC E. coli CFT 073 (Escherichia coli; strain CFT 073): 250 µg/mL (≈ 943 µM)
MIC (Streptococcus suis): 250 µg/mL (≈ 943 µM)
MIC (Streptococcus pneumoniae): 128 µg/mL (≈ 483 µM)
MIC (Acinetobacter baumannii; MDR clinical isolate NM8, read-out: MIC A. baumannii NM8): 125 µg/mL (≈ 471 µM)
MIC (Acinetobacter baumannii; MDR clinical isolate NM35, read-out: MIC A. baumannii NM35): 125 µg/mL (≈ 471 µM)
MIC (Acinetobacter baumannii; MDR clinical isolate NM75, read-out: MIC A. baumannii NM75): 250 µg/mL (≈ 943 µM)
MIC (Acinetobacter baumannii; MDR clinical isolate NM109, read-out: MIC A. baumannii NM109): 125 µg/mL (≈ 471 µM)
MIC (Acinetobacter baumannii; MDR clinical isolate NM124, read-out: MIC A. baumannii NM124): 125 µg/mL (≈ 471 µM)
MIC (Acinetobacter baumannii; summary over strains, read-out: MICs for A. baumannii strains): 125 to 250 µg/mL (≈ 471 to 943 µM)
MIC [5]: > 500 µg/mL
MIC (Klebsiella pneumoniae; Klebsiella pneumoniae, ATCC700603, strain ATCC 700603): 125 to 250 µg/mL (≈ 471 to 943 µM)
MIC K. pneumoniae ATCC700603 (Klebsiella pneumoniae; strain ATCC 700603): 250 µg/mL (≈ 943 µM)
MIC (Pseudomonas aeruginosa): 500 µg/mL (≈ 1890 µM)
HC50 (Hemolysis assay): > 500 µg/mL
solubility [6]: ≤ 1000 µM

O=C(O)c1ccc(-c2ccc(/C=C3\S/C(=N\c4ccccc4)N(c4ccc(F)cc4)C3=O)s2)cc1 [H2-81]
IC50 (S. epidermidis YycG): 24 µM
MIC Gram positive (Gram positive strains): ≥ 0.75 µg/mL
